Measurements from patent publication US9676715B2, “Bis-indolic derivatives, a process for preparing the same and their uses as a drug” (UNIVERSITE JOSEPH FOURIER, priority 2011, dated 2017).
Converted amounts (≈) assume the structure as drawn.

Assays:
Assay in all cases: MIC, microdilution method (9.1)
[1] = test system: S. aureus ATCC 106414 (VISA); format: cell-based, Staphylococcus aureus; conditions: Staphylococcus aureus, read after 18 h, read-out: MIC
Method: (§1) The microdilution method recommended by the Clinical and Laboratory Standard Institute [M07-A8, Vol. 29, No. 2] was used. The activity of indolic compounds was tested against 29 bacterial strains belonging to 17 different species and 12 different genera (Staphylococcus, Streptococcus, Enterococcus, Listeria, Bacillus, Haemophilus, Escherichia, Klebsiella, Enterobacter, Serratia, Pseudomonas, and Acinetobacter). Bacterial inocula were prepared in Mueller Hinton broth (MH2, bioMérieux, Marcy L'Etoile, France), supplemented with 10% sheep blood for fastidious species (i.e., Streptococcus pneumoniae and Haemophilus influenzae). They were dispensed in 96 well microtiter plates (5×10^5 CFU/ml of final inoculum). Indolic compounds were added to the wells as to obtain two-fold serial concentrations (0.50-128 mg/L of final concentrations). Plates were incubated at 37° C. in ambient air, or at 37° C. in 5% CO2 enriched atmosphere for fastidious species. […] Drug-free cultures served as growth controls. Cultures receiving gentamicin, ciprofloxacin or cefotaxime served as positive controls.

[2] = test system: S. aureus ATCC 25923; format: cell-based, Staphylococcus aureus; conditions: Staphylococcus aureus, ATCC25923, read after 18 h, read-out: MIC
Method: as §1

[3] = test system: S. aureus ATCC 29213; format: cell-based, Staphylococcus aureus; conditions: Staphylococcus aureus, ATCC29213, read after 18 h, read-out: MIC
Method: as §1

[4] = test system: S. aureus ATCC 33592 (MRSA); format: cell-based, Staphylococcus aureus; conditions: Staphylococcus aureus, read after 18 h, read-out: MIC
Method: as §1

[5] = test system: S. aureus ATCC 6538; format: cell-based, Staphylococcus aureus; conditions: Staphylococcus aureus, ATCC6538, read after 18 h, read-out: MIC
Method: as §1

[6] = test system: S. aureus ATCC 9144; format: cell-based, Staphylococcus aureus; conditions: Staphylococcus aureus, ATCC9144, read after 18 h, read-out: MIC
Method: as §1

[7] = test system: S. aureus CIP 103428; format: cell-based, Staphylococcus aureus; conditions: Staphylococcus aureus, CIP103428, read after 18 h, read-out: MIC
Method: as §1

[8] = test system: S. aureus CIP 65.25 (MRSA); format: cell-based, Staphylococcus aureus; conditions: Staphylococcus aureus, read after 18 h, read-out: MIC
Method: as §1

[9] = test system: S. aureus CIP 65.6; format: cell-based, Staphylococcus aureus; conditions: Staphylococcus aureus, CIP65, read after 18 h, read-out: MIC
Method: as §1

[10] = test system: S. epidermidis ATCC 12228; format: cell-based, Staphylococcus epidermidis; conditions: Staphylococcus epidermidis, ATCC12228, read after 18 h, read-out: MIC
Method: as §1

[11] = test system: S. epidermidis CIP 103627; format: cell-based, Staphylococcus epidermidis; conditions: Staphylococcus epidermidis, CIP103627, read after 18 h, read-out: MIC
Method: as §1

[12] = test system: S. epidermidis CIP 81.55; format: cell-based, Staphylococcus epidermidis; conditions: Staphylococcus epidermidis, CIP81, read after 18 h, read-out: MIC
Method: as §1

[13] = test system: S. pneumoniae ATCC 6303; format: cell-based, Streptococcus pneumoniae; conditions: Streptococcus pneumoniae, ATCC6303, 10% sheep blood, 5% CO2, 18 h, read-out: MIC
Method: as §1

[14] = test system: S. agalactiae (group B) ATCC 12400; format: cell-based, Streptococcus agalactiae; conditions: Streptococcus agalactiae, ATCC12400, 18 h, read-out: MIC
Method: as §1

[15] = test system: S. pyogenes (group A) CIP 104226; format: cell-based, Streptococcus pyogenes; conditions: Streptococcus pyogenes, CIP104226, 18 h, read-out: MIC
Method: as §1

[16] = test system: S. mitis CIP 103335; format: cell-based, Streptococcus mitis; conditions: Streptococcus mitis, CIP103335, 18 h, read-out: MIC
Method: as §1

[17] = test system: E. faecium CIP 54.32; format: cell-based, Enterococcus faecium; conditions: Enterococcus faecium, CIP54, 18 h, read-out: MIC
Method: as §1

[18] = test system: E. faecalis ATCC 29212; format: cell-based, Enterococcus faecalis; conditions: Enterococcus faecalis, ATCC29212, 18 h, read-out: MIC
Method: as §1

[19] = test system: Acinetobacter baumanii ATCC 19606; format: cell-based; conditions: Acinetobacter baumannii, ATCC19606, 18 h, read-out: MIC
Method: as §1

[20] = test system: Bacillus subtilis CIP 5262; format: cell-based; conditions: CIP5262, 18 h, read-out: MIC
Method: as §1

[21] = test system: Enterobacter cloacae ATCC13047; format: cell-based; conditions: 18 h
Method: as §1

[22] = test system: Escherichia coli ATCC 25922; format: cell-based; conditions: ATCC25922, 18 h
Method: as §1

[23] = test system: Haemophilus influenzae ATCC 49766; format: cell-based; conditions: ATCC49766; Haemophilus influenzae ATCC 49766; 10% sheep blood, 5% CO2; 18 h; read-out: MIC
Method: as §1

[24] = test system: Klebsiella pneumoniae API ATCC 35657; format: cell-based; conditions: ATCC35657, 18 h, read-out: MIC
Method: as §1

[25] = test system: Listeria innocua CIP 80.11; format: cell-based; conditions: CIP80, 18 h, read-out: MIC
Method: as §1

[26] = test system: Pseudomonas aeruginosa CIP 5933; format: cell-based; conditions: CIP5933, 18 h, read-out: MIC
Method: as §1

[27] = test system: S. pneumoniae ATCC 49619; format: cell-based; conditions: Streptococcus pneumoniae, ATCC49619, 10% sheep blood, 5% CO2, 18 h
Method: as §1

[28] = test system: Serratia marcescens CIP 103551; format: cell-based; conditions: CIP103551, 18 h
Method: as §1

Compound	MIC [1] [µg/mL]	MIC [2] [µg/mL]	MIC [3] [µg/mL]	MIC [4] [µg/mL]	MIC [5] [µg/mL]	MIC [6] [µg/mL]	MIC [7] [µg/mL]	MIC [8] [µg/mL]	MIC [9] [µg/mL]	MIC [10] [µg/mL]	MIC [11] [µg/mL]	MIC [12] [µg/mL]	MIC [13] [µg/mL]	MIC [14] [µg/mL]	MIC [15] [µg/mL]	MIC [16] [µg/mL]	MIC [17] [µg/mL]	MIC [18] [µg/mL]	MIC [19] [µg/mL]	MIC [20] [µg/mL]	other results
CC(NC(=O)c1c[nH]c2ccc(F)cc12)c1c[nH]c2ccc(Br)cc12 (centres unmarked) [Compound 5, N-(1-(5-bromo-1H-indol-3-yl)ethyl)-5-fluoro-1H-indole-3-carboxamide]	16 (≈ 40 µM)	16 (≈ 40 µM)	16 (≈ 40 µM)	16 (≈ 40 µM)	16 (≈ 40 µM)	16 (≈ 40 µM)	16 (≈ 40 µM)	16 (≈ 40 µM)	> 32	16 (≈ 40 µM)	16 (≈ 40 µM)	16 (≈ 40 µM)	–	–	–	–	–	–	–	–	–
O=C(NC(C(=O)NCCO)c1c[nH]c2ccc(Br)cc12)c1c[nH]c2ccc(Br)cc12 (centres unmarked) [Compound 14, 5-Bromo-N-(1-(5-bromo-1H-indol-3-yl)-2-((2-hydroxyethyl)amino)-2-oxoethyl)-1H-indole-3-carboxamide]	32 (≈ 59.9 µM)	32 (≈ 59.9 µM)	32 (≈ 59.9 µM)	32 (≈ 59.9 µM)	32 (≈ 59.9 µM)	32 (≈ 59.9 µM)	32 (≈ 59.9 µM)	32 (≈ 59.9 µM)	> 32	32 (≈ 59.9 µM)	32 (≈ 59.9 µM)	32 (≈ 59.9 µM)	128 (≈ 240 µM)	64 (≈ 120 µM)	64 (≈ 120 µM)	> 128	> 128	> 128	> 32	> 128	MIC [21]: > 32 µg/mL; MIC [22]: > 32 µg/mL; MIC [23]: > 128 µg/mL; MIC [24]: > 32 µg/mL; MIC [25]: > 128 µg/mL; MIC [26]: > 32 µg/mL; MIC [27]: 64 µg/mL (≈ 120 µM); MIC [28]: > 32 µg/mL
O=C(NC(C(=O)NCCCCO)c1c[nH]c2ccc(Br)cc12)c1c[nH]c2ccc(Br)cc12 (centres unmarked) [Compound 15, 5-Bromo-N-(1-(5-bromo-1H-indol-3-yl)-2-((4-hydroxybutyl)amino)-2-oxoethyl)-1H-indole-3-carboxamide]	32 (≈ 56.9 µM)	32 (≈ 56.9 µM)	16 (≈ 28.5 µM)	32 (≈ 56.9 µM)	16 (≈ 28.5 µM)	32 (≈ 56.9 µM)	16 (≈ 28.5 µM)	32 (≈ 56.9 µM)	32 (≈ 56.9 µM)	32 (≈ 56.9 µM)	32 (≈ 56.9 µM)	> 32	128 (≈ 228 µM)	64 (≈ 114 µM)	128 (≈ 228 µM)	> 128	> 128	> 128	> 32	> 128	MIC [21]: > 32 µg/mL; MIC [22]: > 32 µg/mL; MIC [23]: > 128 µg/mL; MIC [24]: > 32 µg/mL; MIC [25]: > 128 µg/mL; MIC [26]: > 32 µg/mL; MIC [27]: 128 µg/mL (≈ 228 µM); MIC [28]: > 32 µg/mL
